As a reminder, the IC50 is the concentration at which inhibition is half-maximal.

The record followed here is ChEMBL document CHEMBL4422633, “Antioxidant-Inspired Drug Discovery: Antitumor Metabolite Is Formed in Situ from a Hydroxycinnamic Acid Derivative upon Free-Radical Scavenging” (J Med Chem, 2019).

The source made the active and inactive calls. No cut-off for these calls is given here. Bounds are passed on as bounds.

Data set [1] relates to MCF7. In words: Cytotoxicity against human MCF7 cells assessed as combination index measured at ED50 at H2O2/pcm ratio of 1.25:1 in presence of H2O2 after 48 hrs by MTT assay. Format: functional.
Data set [2] relates to MCF7. The experiment in a line: Cytotoxicity against human MCF7 cells assessed as combination index measured at ED90 at H2O2/pcm ratio of 2.5:1 in presence of H2O2 after 48 hrs by MTT assay. Type of data set: functional.
A further data set concerns A549. The experiment in a line: Cytotoxicity against human A549 cells assessed as reduction in cell viability after 72 hrs by MTT assay. Format: functional, cell-based. The following applies: A549, 72 h.
Data set [3] deals with MCF7. In words: Cytotoxicity against human MCF7 cells assessed as combination index measured at ED50 at H2O2/pcm ratio of 2.5:1 in presence of H2O2 after 48 hrs by MTT assay. Type of data set: functional.
The subject of a further data set is NCI-H661. The experiment in a line: Cytotoxicity against human NCI-H661 cells assessed as reduction in cell viability after 72 hrs by MTT assay. Type of data set: functional, cell-based. The following applies: NCI-H661, 72 h.
Data set [4] has as its system MCF7. The experiment in a line: Cytotoxicity against human MCF7 cells assessed as combination index measured at ED75 at H2O2/pcm ratio of 1.25:1 in presence of H2O2 after 48 hrs by MTT assay. Type of data set: functional. A general note: Tetrazolium assays rely on reduction of a dye to a coloured formazan, in cell work by metabolically active cells.
Data set [5] in a line: Stability in MeOH and H2O2 by HPLC-PDA assay. Format: physicochemical.
The next data set deals with HeLa. In words: Cytotoxicity against human HeLa cells assessed as reduction in cell viability after 72 hrs by MTT assay. Format: functional, cell-based.
A short description of data set [6]: Cytotoxicity against mouse L5178B1 cells transfected with pHa MDR1/A retrovirus assessed as reduction in cell viability after 72 hrs by MTT assay. Format: functional, cell-based. The following applies: MDR1, 72 h.
In the next data set the test system is HaCaT. The experiment in a line: Cytotoxicity against human HaCaT cells assessed as reduction in cell viability after 72 hrs by MTT assay. Type of data set: cell-based.
Data set [7] concerns MCF7. In words: Cytotoxicity against human MCF7 cells assessed as combination index measured at ED75 at H2O2/pcm ratio of 0.625:1 in presence of H2O2 after 48 hrs by MTT assay. Type of data set: functional.
Data set [8] deals with MCF7. In words: Cytotoxicity against human MCF7 cells assessed as combination index measured at ED75 at H2O2/pcm ratio of 2.5:1 in presence of H2O2 after 48 hrs by MTT assay. Type of data set: functional.
Data set [9] can be described thus: Cytotoxicity against mouse L5178 cells assessed as reduction in cell viability after 72 hrs by MTT assay. Format: functional, cell-based. The following applies: L5178, 72 h.
Data set [10] has as its system MCF7. In words: Cytotoxicity against human MCF7 cells assessed as reduction in cell viability after 72 hrs by MTT assay. The following applies: MCF7, 72 h. Format: functional, cell-based.
Data set [11] deals with MCF7. The experiment in a line: Cytotoxicity against human MCF7 cells assessed as combination index measured at ED90 at H2O2/pcm ratio of 0.625:1 in presence of H2O2 after 48 hrs by MTT assay. Format: functional.
The subject of data set [12] is MCF7. The experiment in a line: Cytotoxicity against human MCF7 cells assessed as combination index measured at ED50 at H2O2/pcm ratio of 0.625:1 in presence of H2O2 after 48 hrs by MTT assay. Format: functional.
In a further data set the test system is NCI-H460. In words: Cytotoxicity against human NCI-H460 cells assessed as reduction in cell viability after 72 hrs by MTT assay. The following applies: NCI-H460, 72 h. Type of data set: functional, cell-based.
Data set [13] relates to MCF7. In words: Cytotoxicity against human MCF7 cells assessed as combination index measured at ED90 at H2O2/pcm ratio of 1.25:1 in presence of H2O2 after 48 hrs by MTT assay. Format: functional.
In data set [14] the target is T1, Serine/threonine-protein kinase Chk1 (Homo sapiens) (UniProt O14757).
T1 sequence (whole entry): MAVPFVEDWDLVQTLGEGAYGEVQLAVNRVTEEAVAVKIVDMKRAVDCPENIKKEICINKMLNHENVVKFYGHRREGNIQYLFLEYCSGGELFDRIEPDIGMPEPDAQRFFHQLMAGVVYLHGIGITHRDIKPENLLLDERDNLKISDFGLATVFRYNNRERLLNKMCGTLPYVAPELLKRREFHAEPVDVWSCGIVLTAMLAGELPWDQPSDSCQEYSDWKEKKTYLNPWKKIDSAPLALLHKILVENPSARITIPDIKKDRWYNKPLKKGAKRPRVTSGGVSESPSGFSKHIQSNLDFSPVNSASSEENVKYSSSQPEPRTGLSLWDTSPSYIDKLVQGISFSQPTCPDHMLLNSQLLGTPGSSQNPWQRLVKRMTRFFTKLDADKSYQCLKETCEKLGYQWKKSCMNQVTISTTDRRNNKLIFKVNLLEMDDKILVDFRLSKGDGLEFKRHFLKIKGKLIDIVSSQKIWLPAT
In words: Inhibition of CHK1 phosphorylation at S345 in human MCF7 cells at 10 uM pretreated for 30 mins followed by 10 J/m'2 irradiation and measured after 1 hr by Western blot analysis. Type of data set: cell-based.

A short description of data set [15]: Antioxidant activity assessed as hydroxyl radical scavenging activity by measuring inhibition of damage to 2-deoxy-D-ribose after 3 mins by TBA-based Fenton reaction assay. Type of data set: functional.
A further data set deals with SiHa. The experiment in a line: Cytotoxicity against human SiHa cells assessed as reduction in cell viability after 72 hrs by MTT assay. Format: functional, cell-based.
In a further data set the test system is Liver. In words: Antioxidant activity in rat liver microsomes assessed as reduction in lipid peroxidation. Type of data set: functional, Microsome. (Microsomes from liver hold many membrane-bound enzymes, among them those of drug oxidation.)
A short description of data set [16]: Drug metabolism assessed as methyl 3-(1-hydroxy-4-oxocyclohexa-2,5-dienyl)acrylate formation by reverse phase-HPLC and HPLC-MS analysis based Fenton reaction assay.
Data set [17] concerns the target Serine/threonine-protein kinase Chk2 (Homo sapiens) (UniProt O96017). In words: Inhibition of CHK2 phosphorylation at T68 in human MCF7 cells at 10 uM pretreated for 30 mins followed by 10 J/m'2 irradiation and measured after 1 hr by Western blot analysis. Format: cell-based. In general terms: In western blotting, separated proteins are transferred to a membrane and probed.

A short description of data set [18]: Cytotoxicity against human NCI-H460/R cells transfected with MDR assessed as reduction in cell viability after 72 hrs by MTT assay. The following applies: NCI-H460, 72 h. Type of data set: functional, cell-based.

Serine/threonine-protein kinase Chk2 (Homo sapiens), sequence (O96017 whole entry): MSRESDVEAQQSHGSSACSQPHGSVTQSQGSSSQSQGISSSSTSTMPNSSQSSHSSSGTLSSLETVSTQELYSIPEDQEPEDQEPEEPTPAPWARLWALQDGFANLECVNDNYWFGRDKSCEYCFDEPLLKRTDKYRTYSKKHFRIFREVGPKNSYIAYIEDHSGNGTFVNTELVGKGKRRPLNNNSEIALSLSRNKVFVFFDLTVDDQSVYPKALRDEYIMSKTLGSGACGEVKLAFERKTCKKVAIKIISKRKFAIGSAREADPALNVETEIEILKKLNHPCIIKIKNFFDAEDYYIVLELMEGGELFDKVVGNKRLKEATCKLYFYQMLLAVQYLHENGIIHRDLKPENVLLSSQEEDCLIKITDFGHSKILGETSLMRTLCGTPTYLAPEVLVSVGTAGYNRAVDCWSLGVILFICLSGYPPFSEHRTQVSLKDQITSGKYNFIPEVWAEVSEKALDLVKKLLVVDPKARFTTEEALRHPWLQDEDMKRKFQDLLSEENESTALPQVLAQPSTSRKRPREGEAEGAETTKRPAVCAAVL

On to `COC(=O)/C=C/c1ccc(O)cc1` [METHYL P-HYDROXYCINNAMATE], for which the CI in the data set on MCF7 [1] was determined as 0.93; in the data set on MCF7 [2] it was 0.45; in the data set on MCF7 [3], 0.79; in the data set on MCF7 [4] it was 0.6; in the data set on MCF7 [7], 0.68; in the data set on MCF7 [8], 0.6. For the same compound, the CI is reported as 0.44 with MCF7 [11], 1.06 in the data set with MCF7 [12] and 0.39 in the data set on MCF7 [13]. Besides, the IC50 in the data set with A549 is 323 µM; in the data set on NCI-H661, 289 µM; in the data set with HeLa it was above 150 µM; in [6], above 150 µM; with HaCaT it was 311 µM; in data set [9], 126 µM. Also, the IC50 was above 400 µM with MCF7 [10]; 120 µM in the data set with NCI-H460; 345 µM in data set [15]; above 150 µM in the data set with SiHa; 0.4 µM in the data set on Liver; 1040 µM in data set [18]. For the same compound, the Stability result in data set [5] is “<= 92 hr”. The inhibition entry in [14] and in [17] was “inactive” in each case. In addition, in data set [16], the Drug metabolism entry is “Metabolite detected”.
With `COC(=O)/C=C/c1ccc(O)c(O)c1` [METHYLCAFFEATE], the results for the IC50 in [6] and in data set [9] were 113 µM and 104 µM, respectively.
